Measured values taken from ChEMBL document CHEMBL5614411, “Exploring novel A2AAR antagonists: Design, synthesis, and evaluation of 2,6,9-trisubstituted purine derivatives as promising antifibrotic agents” (Bioorg Med Chem, 2024).
Active and inactive are the calls of the source. The calls are words filed in the database; no cut-off is given here.

Experiments:
Assay type in all cases: functional, cell-based
LX-2 [1] = assay: Antifibrotic activity against human LX-2 cells overexpressing human Adenosine receptor A2a assessed as downregulation of alpha-SMA expression at 10 uM incubated for 18 hrs by Western blotting analysis
LX-2 [2] = assay: Antifibrotic activity against human LX-2 cells overexpressing human Adenosine receptor A2a assessed as downregulation of fibronectin expression at 10 uM incubated for 18 hrs by Western blotting analysis
LX-2 [3] = assay: Antifibrotic activity against human LX-2 cells overexpressing human Adenosine receptor A2a assessed as downregulation of COL1A1 expression at 10 uM incubated for 18 hrs by Western blotting analysis
LX-2 [4] = assay: Antifibrotic activity against human LX-2 cells overexpressing human Adenosine receptor A2a assessed as downregulation of PKA phosphorylation at Thr197 residue at 10 uM incubated for 18 hrs by Western blotting analysis
Adenosine receptor A2a = Adenosine receptor A2a (Homo sapiens, UniProt P29274); assay: Antagonist activity at human Adenosine receptor A2a transfected in HEK293 cells co-expressing CRE-luciferase plasmid assessed as reduction in CRE promoter activity by measuring effective concentration incubated for 18 hrs by luciferase based CRE reporter assay
Sequence of Adenosine receptor A2a (P29274 whole entry): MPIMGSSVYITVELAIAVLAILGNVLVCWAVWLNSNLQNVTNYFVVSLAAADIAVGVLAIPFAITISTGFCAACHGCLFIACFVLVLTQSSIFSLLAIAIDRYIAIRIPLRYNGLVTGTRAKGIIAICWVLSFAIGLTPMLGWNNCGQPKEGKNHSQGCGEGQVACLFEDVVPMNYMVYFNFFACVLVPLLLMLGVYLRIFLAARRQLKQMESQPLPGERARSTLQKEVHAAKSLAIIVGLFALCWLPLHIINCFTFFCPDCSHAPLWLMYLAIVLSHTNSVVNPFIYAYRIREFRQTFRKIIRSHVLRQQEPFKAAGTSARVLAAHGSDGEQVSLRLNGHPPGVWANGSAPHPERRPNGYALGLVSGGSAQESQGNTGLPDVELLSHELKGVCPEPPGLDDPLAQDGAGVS

SMILES | Activity (LX-2 [1]) | Activity (LX-2 [2]) | Activity (LX-2 [3]) | Activity (LX-2 [4]) | EC50 (Adenosine receptor A2a)
CNc1nc(C#Cc2ccccc2)nc2c1ncn2Cc1cc(OC)c(OC)c(OC)c1 | inactive | inactive | inactive | inactive | 
CNc1nc(C#Cc2ccccc2)nc2c1ncn2Cc1ccccc1 | Active | Active | Active | Active | 14.6 µM
